Our source for the Inhibition ratio, IC50 and inhibition in vivo values is patent US20090318385A1, “Pyrazolopyride derivative and phosphodiesterase ( pde) inhibitors containing the same as active ingredient” (priority 2006, published 2009).

Assay [1] concerns histamine-induced bronchoconstriction. Description: Histamine-induced airway contraction reaction in guinea pigs. As to conditions: test compound 1 mg/kg i.v., histamine 12.5 μg/kg i.v., airflow 30 seconds after administration. The class given is in vivo. Here is the method: Guinea pigs were anesthetized with pentobarbital (30 mg/kg, i.p.). A cannula for intravenous administration, a cannula for collecting blood and measuring blood pressure, and a tracheal cannula were inserted into the left external jugular vein, right internal carotid artery, and trachea, respectively. The guinea pigs were maintained on artificial respiration under the conditions of 60 times/min and 10 mL/kg/stroke. The airflow from the side branch of the tracheal cannula was measured by a bronchospasm transducer (Ugo-Basile) and recorded on a computer via Power Lab (ADInstruments Japan). The guinea pigs were immobilized with gallamine (10 mg/kg, i.v.), and histamine was administered at 10-minute intervals (12.5 μg/kg, i.v.). After the histamine-induced bronchoconstriction was constant, one of the test compounds (1 mg/kg, i.v.) dissolved in DMSO was administered. We examined the inhibitory action of test compounds on histamine-induced bronchoconstriction 30 seconds after compounds administration. Bronchoconstriction was recorded as the value of airflow, and the results were represented by the ratio of the maximum value of the histamine-induced airflow 30 seconds after the administration to the maximum value of the airflow before the administration. When the inhibition ratio≧90%, the results were represented by “+++.” When 90%>the inhibition ratio≧70%, the results were represented by “++.” When 70%>the inhibition ratio≧30%, the results were represented by “+.”

In another assay the target is T1, PDE4B catalytic domain (Homo sapiens, UniProt Q07343).
T1 construct: The cDNA of PDE4B catalytic domain (hereinafter abbreviated as Cat) was isolated from human RNA by RT-PCR; made in house; host or cells: Sf9 insect cells (baculovirus, Bac-to-Bac)
In words: Phosphodiesterase inhibitory activity (recombinant PDE4Bcat, [3H]cAMP). The assay is classed as biochemical. As to conditions: 30° C. for 20 minutes, read-out: IC50 (μmol/L) PDE4. An excerpt:
The cDNA of PDE4B catalytic domain (hereinafter abbreviated as Cat) was isolated from human RNA by RT-PCR. The isolated cDNA fragments were inserted into Sf9 insect cells using Gateway system (product of Invitrogen Corporation) and Bac-to-Bac (registered trademark) Baculovirus Expression system (product of Invitrogen Corporation) to express a target PDE protein. The recombinant PDE4Bcat was purified from the culture supernatants or cell extracts of Sf9 cells expressing high levels of the PDE protein by ion exchange chromatography and was used for the following experiments.
A 4 mmol/L solution of each test compound was serially diluted four-fold with a 15% DMSO solution to prepare solutions with concentrations of 15 nmol/L to 4 mmol/L (the final concentrations used in the experiments were 1.5 nmol/L to 400 μmol/L). 10 μL of the prepared test compound solutions, [^3H] cAMP diluted with a buffer solution (40 mmol/L Tris-HCl (pH: 7.4), 10 mmol/L MgCl2), and 40 μL of the recombinant human PDE protein (2×10^−6 units, 1 unit is defined as the amount of PDE that breaks down 1 μmol/L of cAMP in one minute under the conditions of a pH of 7.5 and 30° C.) were added to a 96-well plate. The mixtures were reacted at 30° C. for 20 minutes. Then, the resultant mixtures were reacted at 65° C. for 2 minutes. Subsequently, […] of 1 mg/mL 5′-nucleotidase (Crotalusatrox venom, product of Sigma) was added to the mixtures, and the mixtures were reacted at 30° C. for 10 minutes. After completion of the reaction, 200 μL of a solution of Dowex (300 mg/mL Dowex 1x8-400 (product of Sigma Aldrich), 33% ethanol) was added to the mixtures, and the mixtures were shaken at 4° C. for 20 minutes. Subsequently, 200 μL of MicroScint 20 (product of Packard) was added to the mixtures, and measurement was performed using a scintillation counter (Topcount, product of Packard). IC50 values were calculated using Graph Pad Prism v3.03 (product of GraphPad Software). When 1 μmol/L>the IC50 value≧0.1 μmol/L, the results were represented by “+.” When 0.1 μmol/L>the IC50 value, the results were represented by “++.”

For assay [2], the system named is total number of leukocytes in bronchoalveolar lavage fluid after LPS inhalation. Description: LPS acute inflammation model in rats. As to conditions: Rattus norvegicus, Leukocyte, po, 3 mg/kg orally one hour before LPS inhalation, total leukocytes in BALF 3 hours after LPS inhalation, read-out: Inhibition ratio. The class given is in vivo. Here is the method:
3 mg/kg of the compounds were orally administered to rats one hour before inhalation of lipopolysaccharide (LPS) from E. coli serotype 055:B5, rats were inhalted nebulizing LPS solution (50 mL) by nebulizer for 30 minutes. Then, 3 hours after the LPS inhalation, rats were euthanized with 20% urethane (5 ml/rat, i.p.) 5 ml of physiological saline for bronchoalveolar lavage was injected into the bronchoalveolar space through the airway, and the bronchoalveolar space was washed 3 times using a 5 mL syringe. This procedure was repeated twice, and the solution was collected as bronchoalveolar lavage fluid (BALF). The collected BALF was centrifuged at 1,200 rpm and 4° C. for 10 minutes (Hirtachi; himac CR 5 DL). The sediment was re-suspended in 10 mL of a 0.1% bovine serum albumin-physiological saline, and an equivalent amount of Turk's solution was added to the suspension to stain leukocytes. The total number of leukocytes was counted under a microscope to determine the inhibition ratio. When the inhibition ratio≧60%, the results were represented by “++.” When 60%>the inhibition ratio≧30%, the results were represented by “+.”

SMILES strings stand for the structures. Bounds are passed on as bounds.

T1 sequence (Q07343 330-659 limits assumed): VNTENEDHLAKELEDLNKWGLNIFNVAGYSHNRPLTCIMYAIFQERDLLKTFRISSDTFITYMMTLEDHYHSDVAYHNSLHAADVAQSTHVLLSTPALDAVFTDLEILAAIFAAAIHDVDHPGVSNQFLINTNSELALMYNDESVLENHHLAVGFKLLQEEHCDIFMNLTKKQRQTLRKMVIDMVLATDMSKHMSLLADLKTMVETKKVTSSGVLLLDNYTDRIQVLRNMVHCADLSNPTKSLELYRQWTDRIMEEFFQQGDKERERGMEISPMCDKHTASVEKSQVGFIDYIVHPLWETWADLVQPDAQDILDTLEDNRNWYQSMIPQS

With `COc1ccc(C(O)Cc2ccncc2)c2cc(C(F)(F)F)nn12` (centres unmarked) [Example 77, 1-(7-Methoxy-2-trifluoromethylpyrazolo[1,5-a]pyridin-4-yl)-2-(pyridin-4-yl)ethanol], the Inhibition ratio entry in assay [1] was “+ (When 70%>the inhibition ratio≧30%, the results were represented by “+.”)”. In addition, the IC50 on PDE4B catalytic domain was in the range of 0.1 to 1 µmol/L.

Turning to `COc1ccc(C=Cc2ccncc2)c2cc(C(F)(F)F)nn12` [Example 78, 7-Methoxy-4-[(2-pyridin-4-yl)vinyl]-2-trifluoromethylpyrazolo[1,5-a]pyridine], the inhibition in vivo at 3 mg/kg in assay [2] fell in the range of 30 to 60%. The Inhibition ratio result in assay [1] is reported as “+ (When 70%>the inhibition ratio≧30%, the results were represented by “+.”)”. Moreover, at PDE4B catalytic domain, the IC50 was under 0.1 µmol/L.

With `COc1ccc(CCc2ccncc2)c2cc(C(F)(F)F)nn12` [Example 79, 7-Methoxy-4-[(2-pyridin-4-yl)ethyl]-2-trifluoromethylpyrazolo[1,5-a]pyridine], in assay [2], the inhibition in vivo at 3 mg/kg was at least 60%. In assay [1], the Inhibition ratio entry is given as “+ (When 70%>the inhibition ratio≧30%, the results were represented by “+.”)”. The IC50 on PDE4B catalytic domain was under 0.1 µmol/L.

As to `COc1ccc(C(=O)Cc2c(Cl)cncc2Cl)c2cc(C(F)(F)F)nn12` [Example 88, 2-(3,5-Dichloropyridin-4-yl)-1-(7-methoxy-2-trifluoromethylpyrazolo[1,5-a]pyridin-4-yl)ethanone], the inhibition in vivo at 3 mg/kg in assay [2] is at least 60%. In addition, in assay [1], the Inhibition ratio entry is reported as “++ (When 90%>the inhibition ratio≧70%, the results were represented by “++.”)”. Moreover, on PDE4B catalytic domain, the IC50 is under 0.1 µmol/L.

As for `COc1ccc(/C=C/c2c(Cl)cncc2Cl)c2cc(C(F)(F)F)nn12` [Example 89, (E)-4-[2-(3,5-dichloropyridin-4-yl)vinyl]-7-methoxy-2-trifluoromethylpyrazolo[1,5-a]pyridine], the inhibition in vivo at 3 mg/kg in assay [2] fell in the range of 30 to 60%. Moreover, the Inhibition ratio entry in assay [1] is on record as “+ (When 70%>the inhibition ratio≧30%, the results were represented by “+.”)”. The IC50 on PDE4B catalytic domain is under 0.1 µmol/L.
